These results are taken from ChEMBL document CHEMBL3868641, “Discovery, characterization and biological evaluation of a novel (R)-4,4-difluoropiperidine scaffold as dopamine receptor 4 (D4R) antagonists” (Bioorg Med Chem Lett, 2016).

For data set [1], the target named is D(1A) dopamine receptor (Homo sapiens) (UniProt P21728). Description: Displacement of [3H]SCH-23390 from recombinant human Dopamine D1 receptor expressed in CHO cell membranes at 10 uM after 120 mins relative to control. On the technique in general: In a radioligand displacement assay an active substance lowers the binding of a labelled ligand.
Data set [2] is described as follows: Displacement of [3H]Spiperone from recombinant human Dopamine D4.4 receptor expressed in CHO-K1 cell membranes after 120 mins.
Data set [3] addresses D(2) dopamine receptor (Homo sapiens) (UniProt P14416). In words: Displacement of [3H]Spiperone from recombinant human Dopamine D2L receptor expressed in CHO cell membranes at 10 uM after 120 mins relative to control.
Data set [4] shares this target. Description: Displacement of [3H]Spiperone from recombinant human Dopamine D2S receptor expressed in CHO cell membranes at 10 uM after 120 mins relative to control.
In data set [5] the target is D(3) dopamine receptor (Homo sapiens) (UniProt P35462). In words: Displacement of [3H]Spiperone from recombinant human Dopamine D3 receptor expressed in CHO cell membranes at 10 uM after 120 mins relative to control.
The target of data set [6] is D(1B) dopamine receptor (Homo sapiens) (UniProt P21918). Description: Displacement of [3H]SCH-23390 from recombinant human Dopamine D5 receptor expressed in CHO cell membranes at 10 uM after 120 mins relative to control.
A further data set has as its system CHO-K1. Description: Displacement of [3H] Spiperone from recombinant human Dopamine D4.4 receptor expressed in CHO-K1 cell membranes at 10 nM after 120 mins relative to control.
Data set [7] is described as follows: Intrinsic clearance in human liver microsomes by HPLC/MS analysis. The format is ADME. Conditions: read-out: CLH. On the technique in general: Liver microsomes are a subcellular fraction often used to study metabolism.
Data set [8] is described as follows: Intrinsic clearance in rat liver microsomes by HPLC/MS analysis. The data set is classed as ADME. Conditions: read-out: CLH.
Data set [9] is described as follows: Unbound fraction in human plasma by HPLC/MS based equilibrium dialysis method. The format is ADME, cell-free. (In general: Equilibrium dialysis compares concentrations on both sides of a semipermeable membrane.)
The nature of data set [10]: Unbound fraction in rat plasma by HPLC/MS based equilibrium dialysis method. The data set is classed as ADME, cell-free.
The nature of data set [11]: Plasma concentration in rat at 0.25 mg/kg, iv administered through cassette dosing after 0.25 hrs by LC/MS/MS analysis. The format is ADME, organism-based.
Data set [12] is described as follows: Drug uptake in rat brain at 0.25 mg/kg, iv administered through cassette dosing after 0.25 hrs by LC/MS/MS analysis. Conditions: brain, read-out: Drug uptake. The format is ADME, organism-based.
A short description of data set [13]: Ratio of drug level in brain to plasma in rat at 0.25 mg/kg, iv administered through cassette dosing after 0.25 hrs by LC/MS/MS analysis. The data set is classed as ADME, organism-based.

D(2) dopamine receptor (Homo sapiens), sequence (P14416 whole entry): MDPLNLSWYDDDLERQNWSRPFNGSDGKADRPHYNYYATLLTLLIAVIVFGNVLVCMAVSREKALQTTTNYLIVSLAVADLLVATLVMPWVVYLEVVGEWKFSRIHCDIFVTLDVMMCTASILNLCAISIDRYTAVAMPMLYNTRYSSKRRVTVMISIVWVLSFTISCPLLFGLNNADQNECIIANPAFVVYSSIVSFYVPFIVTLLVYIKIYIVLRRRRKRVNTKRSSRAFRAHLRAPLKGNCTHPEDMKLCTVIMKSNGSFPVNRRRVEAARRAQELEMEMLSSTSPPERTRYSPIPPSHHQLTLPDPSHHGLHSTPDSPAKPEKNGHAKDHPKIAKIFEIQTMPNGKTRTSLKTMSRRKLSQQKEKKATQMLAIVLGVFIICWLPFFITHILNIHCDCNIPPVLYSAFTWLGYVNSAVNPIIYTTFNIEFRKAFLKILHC
D(1A) dopamine receptor (Homo sapiens), sequence (P21728 whole entry): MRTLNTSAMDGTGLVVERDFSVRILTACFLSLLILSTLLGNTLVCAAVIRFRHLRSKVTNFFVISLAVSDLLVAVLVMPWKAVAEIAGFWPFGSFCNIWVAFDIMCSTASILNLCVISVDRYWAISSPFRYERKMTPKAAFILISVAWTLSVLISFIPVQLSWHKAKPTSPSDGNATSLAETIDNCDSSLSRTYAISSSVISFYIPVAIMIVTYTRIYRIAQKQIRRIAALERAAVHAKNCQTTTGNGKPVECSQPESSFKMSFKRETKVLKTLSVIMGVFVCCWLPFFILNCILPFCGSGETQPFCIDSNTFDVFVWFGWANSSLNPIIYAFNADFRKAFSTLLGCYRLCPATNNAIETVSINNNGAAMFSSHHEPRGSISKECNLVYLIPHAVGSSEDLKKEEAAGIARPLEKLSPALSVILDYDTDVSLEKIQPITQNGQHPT
D(1B) dopamine receptor (Homo sapiens), sequence (P21918 whole entry): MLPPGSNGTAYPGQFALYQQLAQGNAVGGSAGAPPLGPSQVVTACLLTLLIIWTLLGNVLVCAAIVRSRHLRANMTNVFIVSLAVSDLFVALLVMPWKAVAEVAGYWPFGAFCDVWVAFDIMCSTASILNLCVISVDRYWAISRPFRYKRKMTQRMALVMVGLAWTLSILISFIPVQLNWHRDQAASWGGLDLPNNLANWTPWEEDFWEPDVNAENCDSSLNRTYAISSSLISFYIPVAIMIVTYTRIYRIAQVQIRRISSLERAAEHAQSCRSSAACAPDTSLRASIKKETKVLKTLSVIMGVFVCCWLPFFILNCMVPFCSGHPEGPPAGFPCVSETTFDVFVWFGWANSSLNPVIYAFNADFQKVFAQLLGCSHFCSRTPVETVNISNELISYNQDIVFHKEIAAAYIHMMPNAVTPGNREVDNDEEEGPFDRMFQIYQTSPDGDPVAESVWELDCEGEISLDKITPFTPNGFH
D(3) dopamine receptor (Homo sapiens), sequence (P35462 whole entry): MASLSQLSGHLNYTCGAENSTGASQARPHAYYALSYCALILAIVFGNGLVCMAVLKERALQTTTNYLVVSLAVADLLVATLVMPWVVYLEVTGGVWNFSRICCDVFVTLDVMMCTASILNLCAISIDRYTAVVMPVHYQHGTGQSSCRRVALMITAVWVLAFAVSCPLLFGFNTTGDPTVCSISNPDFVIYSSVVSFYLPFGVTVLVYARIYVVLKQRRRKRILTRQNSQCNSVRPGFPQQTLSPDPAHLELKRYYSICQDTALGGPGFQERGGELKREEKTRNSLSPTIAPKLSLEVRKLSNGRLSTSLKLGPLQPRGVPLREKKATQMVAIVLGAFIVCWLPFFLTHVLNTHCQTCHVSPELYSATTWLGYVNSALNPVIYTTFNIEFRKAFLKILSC

One may read the inhibition as the relative decrease from the control value, in per cent. For orientation: IC50 means the point on the concentration scale where inhibition reaches its midpoint. A word on the Ki: it is a dissociation constant, usually derived from enzyme kinetics or from competition with a known ligand. By fraction unbound is commonly meant free concentration divided by total concentration. Read a high fraction unbound as much free substance. The Kp is tissue or fluid exposure divided by exposure in the circulation. With `COc1ccc2c(CN3CCC(F)(F)[C@H](CCc4ccc(F)cc4)C3)c[nH]c2c1`, the inhibition in data set [1] was below 30%; in data set [3], 67%; in data set [4] it was below 30%; in data set [5], 52%; in data set [6] it was below 30%; in the data set with CHO-K1, 63%. Besides, the IC50 in data set [2] stood at 7 nM. Further, the Ki in [2] was 1.9 nM. Moreover, the results for the CLint scaled in data set [7] and in data set [8] were 298 mL/min/kg and 957 mL/min/kg, respectively. In addition, the fraction unbound in data set [9] stood at 0.018; in [10], 0.009. In addition, the concentration at 0.25 h in data set [11] is 9.2 ng/mL; in data set [12], 30.3 ng/g. Also, the Kp at 0.25 h in [13] is 3.3.
